Source: US12509460B2 (Skyhawk Therapeutics, Inc., priority 2019, dated 2025)
Like-named read-outs stand apart in the source and are kept apart here.

Assays:
MDR1 [1] = assay: in vitro; details: dog, MDCK-MDR1, pH 7.4
MDR1 (P-gp) [2] = assay: in vitro; details: dog, MDCK-MDR1, pH 7.4
[3] = system: MDR1-MDCK cell monolayers; details: dog, MDCK-MDR1, 120 min, 5 μM, pH 7.4
[4] = system: mHTT protein in GM04724 (CAG 70/20) Huntington's disease patient lymphoblast cells; assay: mHTT protein assay, 2B7-MW1 assay via Mesoscale Discovery (MSD); assay type: cell-based, human
Method in brief: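 Signal from the 2B7-MW1 antibody pair on MSD, rising with polyQ length and smaller HTT fragments, measured mHTT after 48 h compound exposure (0.6 nM–10 μM) in GM04724 cells. A parallel replicate plate gave CellTiter Glo viability.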

[5] = system: SMN protein in spinal muscular atrophy (SMA) patient fibroblasts (GM03813, Coriell); assay: SMN protein assay, Mesoscale Discovery (MSD); assay type: cell-based, human; details: for EC50: read-out: SMN2 protein EC50
Method in brief: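 Absolute SMN levels were quantified by MSD against an SMN protein standard curve (1 μg/ml to 19.5 pg/ml) run on each plate. Samples were lysates of GM03813 patient fibroblasts (7000 cells/well) treated 48 hours with compound doses from 2.5 μM down to 0.6 nM.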

[6] = Quantitative splicing assay (HTT), qPCR; assay type: cell-based, human; details: Homo sapiens, GM04724, 24 h, GM04724 lymphoblasts, qPCR, read-out: HTT Splicing: E49-50 EC50
Method in brief: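 TaqMan qPCR on cell-lysate cDNA quantifies cryptic-exon inclusion from HTT intron 49. Lymphoblasts plated at 50,000 cells/well had received compound for 24 h, 0.15 nM-2.5 uM range, 0.1% DMSO.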

[7] = system: SMN FL and SMN Δ7 in spinal muscular atrophy (SMA) patient fibroblasts (GM03813, Coriell); assay: Quantitative splicing assay (SMN), qPCR; assay type: cell-based, human; details: Homo sapiens, Fibroblast, 24 h, SMA patient fibroblasts GM03813, 24 h, qPCR; read-out: SMN2 Splicing FL EC50
Experimental: Spinal muscular atrophy (SMA) patient fibroblasts (GM03813, Coriell) are plated in 96-well plates at 50,000 cells/well. […] Treated cells are lysed and cDNA synthesized using the Fast Advanced Cells-to-Ct kit (Thermofisher A35378) according to the manufacturer's instructions. 2 μL of each cDNA are used in qPCR reactions. […] Reactions are run in a Quant Studio 6 qPCR instrument with default settings.

[8] = system: MDR1-MDCK cell monolayers; assay: Blood-brain-barrier (BBB) penetration potential via MDCK-MDR1 permeability assay; details: for MDCK-MDR1: % Recov A-B: A-B direction; for MDCK-MDR1: % Recov B-A: B-A direction
MDR1 [9] = assay: as above; details: dog, MDCK-MDR1, pH 7.4, MDCK-MDR1: Efflux, efflux ratio
MDR1 (P-gp) [10] = assay: as above; details: dog; for Papp A→B at 120 min, 5 μM: MDCK-MDR1, pH 7.4, MDCK-MDR1: Papp A-B, A-B direction; for Papp B→A at 120 min, 5 μM: MDCK-MDR1, pH 7.4, MDCK-MDR1: Papp B-A, B-A direction
[11] = GM04724 Huntington's disease patient lymphoblasts
[12] = SMA patient fibroblasts GM03813, 48 hours, MSD
[13] = GM04724 (CAG 70/20) Huntington's disease patient lymphoblasts
[14] = SMA patient fibroblasts (GM03813), 48 hours

| Structure (SMILES) | efflux ratio at 120 min, 5 μM (MDR1 [1]) | Papp A→B at 120 min, 5 μM (MDR1 (P-gp) [2]) | Papp B→A at 120 min, 5 μM (MDR1 (P-gp) [2]) | MDCK-MDR1: % Recov A-B [3] | MDCK-MDR1: % Recov B-A [3] | mHTT protein EC50 [4, 11] | SMN2 protein EC50 [5, 12] | mHTT protein EC50 [4, 13] | EC50 [5, 14] | SMN2 protein EC50 [5, 14] | EC50 [6] | EC50 [7] | MDCK-MDR1: % Recov A-B [8] | MDCK-MDR1: % Recov B-A [8] | efflux ratio at 120 min, 5 μM (MDR1 [9]) | Papp A→B at 120 min, 5 μM (MDR1 (P-gp) [10]) | Papp B→A at 120 min, 5 μM (MDR1 (P-gp) [10]) | EC50 [4, 11] | EC50 [5, 12] |
| --- | --- | --- | --- | --- | --- | --- | --- | --- | --- | --- | --- | --- | --- | --- | --- | --- | --- | --- | --- |
| O=C(c1cc2cc(O)c(-c3ccc(N(C4CC4)[C@@H]4C[C@H]5CC[C@H](N5)[C@@H]4F)nn3)cc2o1)N1CCC1 [Compound 57A, azetidin-1-yl(6-(6-(cyclopropyl((1S,2S,3R,5R)-2-fluoro-8-azabicyclo[3.2.1]octan-3-yl)amino)pyridazin-3-yl)-5-hydroxybenzofuran-2-yl)methanone] | 80 | 0.78 ×10⁻⁶ cm/s | 63.2 ×10⁻⁶ cm/s | 89% | 104% | E (501 ≤ E ≤ 10.000) | E (501 ≤ E ≤ 10.000) | – | – | – | – | – | – | – | – | – | – | – | – |
| CNC(=O)c1cc(O)c(-c2ccc(N(C)[C@@H]3C[C@H]4CC[C@@H]([C@@H]3F)N4C)nn2)cc1F (single isomer, unassigned) [Compound 96A] | 18 | 2.97 ×10⁻⁶ cm/s | 53.7 ×10⁻⁶ cm/s | 100% | 114% | E (501 ≤ E ≤ 10.000) | E (501 ≤ E ≤ 10.000) | – | – | – | – | – | – | – | – | – | – | – | – |
| CC(=O)Nc1ccc(-c2ccc(N(C)[C@H]3C[C@@H]4CC[C@@H](N4)[C@H]3F)nn2)c(O)c1 (single isomer, unassigned) [Compound 32B] | 78 | 0.27 ×10⁻⁶ cm/s | 21.2 ×10⁻⁶ cm/s | 95% | 95% | E (501 ≤ E ≤ 10.000) | E (501 ≤ E ≤ 10.000) | – | – | – | – | – | – | – | – | – | – | – | – |
| CN(c1ccc(-c2ccc(-n3cnc(C(=O)NC(C)(C)C)c3)cc2O)nn1)[C@@H]1C[C@H]2CC[C@H](N2)[C@@H]1F (single isomer, unassigned) [Compound 124A] | 133 | 0.34 ×10⁻⁶ cm/s | 45.7 ×10⁻⁶ cm/s | 78% | 78% | – | – | E (501 ≤ E ≤ 10.000) | 101 to 500 nM | – | – | – | – | – | – | – | – | – | – |
| CN1[C@H]2CC[C@@H]1[C@@H](F)[C@@H](N(c1ccc(-c3cc4ncn(CC(F)(F)F)c(=O)c4cc3O)nn1)C1CC1)C2 (single isomer, unassigned) [Compound 111B] | 54 | 0.66 ×10⁻⁶ cm/s | 35.9 ×10⁻⁶ cm/s | 74% | 56% | – | – | E (501 ≤ E ≤ 10.000) | – | E (501 ≤ E ≤ 10.000) | – | – | – | – | – | – | – | – | – |
| CN(c1ccc(-c2cc3ncn(CC(F)(F)F)c(=O)c3cc2O)nn1)[C@H]1C[C@@H]2CCC[C@H]([C@H]1F)N2C (single isomer, unassigned) [Compound 109B] | 26 | 2.39 ×10⁻⁶ cm/s | 63.3 ×10⁻⁶ cm/s | 74% | 87% | – | – | E (501 ≤ E ≤ 10.000) | – | E (501 ≤ E ≤ 10.000) | – | – | – | – | – | – | – | – | – |
| CN(c1ccc(-c2cc3ncn(CC(F)(F)F)c(=O)c3cc2O)nn1)[C@H]1C[C@@H]2CC[C@H]([C@H]1F)N2C (single isomer, unassigned) [Compound 108B] | 61 | 0.98 ×10⁻⁶ cm/s | 59.5 ×10⁻⁶ cm/s | 102% | 101% | – | – | E (501 ≤ E ≤ 10.000) | – | E (501 ≤ E ≤ 10.000) | – | – | – | – | – | – | – | – | – |
| CC(=O)N(C)c1ccc(-c2ccc(N(C)[C@@H]3C[C@H]4CC[C@H](N4)[C@@H]3F)nn2)c(O)c1 [Compound 35A, N-(4-(6-(((1S,2S,3R,5R)-2-fluoro-8-azabicyclo[3.2.1]octan-3-yl)(methyl)amino)pyridazin-3-yl)-3-hydroxyphenyl)-N-methylacetamide] | 197 | 0.21 ×10⁻⁶ cm/s | 41 ×10⁻⁶ cm/s | 102% | 103% | E (501 ≤ E ≤ 10.000) | E (501 ≤ E ≤ 10.000) | – | – | – | – | – | – | – | – | – | – | – | – |
| CN(c1ccc(-c2cnc(-c3cnn(C)c3)nc2O)nn1)[C@H]1C[C@@H]2CC[C@@H](N2)[C@H]1F (racemic) [Compound 122, rac-5-(6-(((1R,2R,3S,5S)-2-fluoro-8-azabicyclo[3.2.1]octan-3-yl)(methyl)amino)pyridazin-3-yl)-2-(1-methyl-1H-pyrazol-4-yl)pyrimidin-4-ol] | > 3 | < 0.2 ×10⁻⁶ cm/s | 0.6 ×10⁻⁶ cm/s | 86% | 98% | – | – | – | – | E (501 ≤ E ≤ 10.000) | – | – | – | – | – | – | – | – | – |
| Cc1cnc(-c2ccc(-c3ccc(N(C)[C@H]4C[C@@H]5CCC[C@@H](N5)[C@H]4F)nn3)c(O)c2)cn1 [Compound 26B, 2-(6-(((1R,2R,3S,5S)-2-fluoro-9-azabicyclo[3.3.1]nonan-3-yl)(methyl)amino)pyridazin-3-yl)-5-(5-methylpyrazin-2-yl)phenol] | – | – | – | – | – | – | – | – | – | – | 51 to 100 nM | 51 to 100 nM | 60% | 81% | 16 | 2.76 ×10⁻⁶ cm/s | 45.1 ×10⁻⁶ cm/s | 0.01 to 15 nM | 0.01 to 15 nM |
| CN(c1ccc(-c2cc3c(=O)n(C)ccc3s2)nn1)[C@H]1C[C@@H]2CC[C@@H](N2)[C@H]1F (single isomer, unassigned) [Compound 68B] | – | – | – | – | – | – | – | – | – | – | 51 to 100 nM | 51 to 100 nM | 92% | 91% | 113 | 0.4 ×10⁻⁶ cm/s | 44.7 ×10⁻⁶ cm/s | 101 to 500 nM | 16 to 50 nM |
| CN(c1ccc(-c2ccc(-c3nnco3)cc2O)nn1)[C@H]1C[C@@H]2CC[C@@H](N2)[C@H]1F [Compound 44B, 2-(6-(((1R,2R,3S,5S)-2-fluoro-8-azabicyclo[3.2.1]octan-3-yl)(methyl)amino)pyridazin-3-yl)-5-(1,3,4-oxadiazol-2-yl)phenol] | – | – | – | – | – | – | – | – | – | – | 0.01 to 15 nM | 0.01 to 15 nM | 91% | 92% | 7 | 8.2 ×10⁻⁶ cm/s | 54.7 ×10⁻⁶ cm/s | 0.01 to 15 nM | 16 to 50 nM |
| CN(c1ccc(-c2ccc(-c3ccn(C)n3)cc2O)nn1)[C@@H]1C[C@H]2CC[C@H](N2)[C@@H]1F (single isomer, unassigned) [Compound 36A] | – | – | – | – | – | – | – | – | – | – | 16 to 50 nM | 16 to 50 nM | 68% | 82% | 10 | 3.68 ×10⁻⁶ cm/s | 38.6 ×10⁻⁶ cm/s | 16 to 50 nM | 0.01 to 15 nM |
| CN(c1ccc(-c2cc(F)c(-n3ccnn3)cc2O)nn1)[C@H]1C[C@@H]2CC[C@@H](N2)[C@H]1F [Compound 52B, 4-fluoro-2-(6-(((1R,2R,3S,5S)-2-fluoro-8-azabicyclo[3.2.1]octan-3-yl)(methyl)amino)pyridazin-3-yl)-5-(1H-1,2,3-triazol-1-yl)phenol] | – | – | – | – | – | – | – | – | – | – | 16 to 50 nM | 16 to 50 nM | 97% | 90% | 7 | 7.44 ×10⁻⁶ cm/s | 54.4 ×10⁻⁶ cm/s | 0.01 to 15 nM | 0.01 to 15 nM |
| CN(c1ccc(-c2cc(F)c(-c3ccn(C)c(=O)c3)cc2O)nn1)[C@@H]1C[C@H]2CC[C@H](N2)[C@@H]1F [Compound 1A, 4-(2-fluoro-4-(6-(((1S,2S,3R,5R)-2-fluoro-8-azabicyclo[3.2.1]octan-3-yl)(methyl)amino)pyridazin-3-yl)-5-hydroxyphenyl)-1-methylpyridin-2(1H)-one] | – | – | – | – | – | – | – | – | – | – | 0.01 to 15 nM | 0.01 to 15 nM | 83% | 88% | 81 | 0.61 ×10⁻⁶ cm/s | 49.3 ×10⁻⁶ cm/s | 0.01 to 15 nM | 0.01 to 15 nM |
